Data published in patent US8304182B2, “Methods of identifying anti-cancer agents and uses thereof” (The Trustees of the University of Pennsylvania, priority 2003, dated 2012).

Key:
bax^−/−bak^−/− MEFs = format: cell-based, mouse
ATP = assay: Determination of cellular ATP; format: cell-based, mouse
[1] = format: cell-based, mouse
p53^−/− MEFs = format: cell-based, mouse
[2] = tested on: Mouse bone marrow derived macrophages; format: cell-based

O=c1[nH]ccc2c(O)cccc12 [DHIQ]
block of MNNG-induced cell death (bax^−/−bak^−/− MEFs): fully | effect on MNNG-induced cell death rate (parp-1^−/− MEFs): did not affect the cell death rate

O=C1NCCc2c(OCCCCN3CCCCC3)cccc21 [DPQ]
prevention of MNNG-induced ATP depletion (ATP): could be prevented | prevention of MNNG-induced NAD depletion [1]: could be prevented

COc1cc([C@@H]2c3cc4c(cc3[C@@H](O[C@@H]3O[C@@H]5CO[C@@H](C)O[C@H]5[C@H](O)[C@H]3O)[C@H]3COC(=O)[C@H]23)OCO4)cc(OC)c1O [etoposide]
cell death (cell survival by PI exclusion) (p53^−/− MEFs): resistant | cell death (cell survival by PI exclusion) (bax^−/−bak^−/− MEFs): resistant

CN[C@@H]1C[C@H]2O[C@@](C)([C@@H]1OC)n1c3ccccc3c3c4c(c5c6ccccc6n2c5c31)C(=O)NC4 [staurosporine]
cell death (cell survival by PI exclusion) (p53^−/− MEFs): induced cell death | cell death (bax^−/−bak^−/− MEFs): no cell death was observed | cell death (parp-1^−/− MEFs; parp-1^−/− cells, staurosporine, FIG. 3F): killed | TNFα production by macrophages [2]: failed to do so
